We go through two molecules from patent US20160183556A1, “METHOD FOR PRODUCING FEED ADDITIVE CONTAINING SURFACTIN” (SAFT biotechnology com. LTD, priority 2014, published 2016).

Converted amounts (≈) assume the structure as drawn. Like-named read-outs stand apart in the source and are kept apart here. Starred links: 1 amine or outer side, 2 acyl side, 3 side chain; linkers in the order of their positions; H or OH if unused. Positions of bridges follow the written chain, without caps; N, C: chain ends. Non-standard residues stand in square brackets, D forms with d. Residues, ends and D or L forms follow the SMILES beside them. X1 = CC(C)CCCCCCCCC[C@H](CC(=O)[*:1])O[*:2]

The test system of one data set is Aspergillus niger. Put plainly: in vitro susceptibility test (MIC), fungal culture. The class given is cell-based. Particulars: read-out: minimum inhibiting concentration (MIC). The procedure: (§1) To examine whether surfactin has antimicrobial activity, in vitro susceptibility test was conducted.
Aspergillus niger was inoculated onto the MEAIII plate and incubated at 25° C. for 48 hours, the colonies were scraped off into specific culture medium. Bacterial culture was spread onto the MEAIII plate after serial dilution and the number of colonies was calculated, the original concentration was determined to be 1×10^6 CFU/ml. An aliquot of 500 μl of the bacterial culture was add to 500 μl of MEB before diluting the concentration of bacterial culture to 5×10^5 CFU/ml.
(§2) An aliquot of 130 μl of the bacterial culture was added to each well of a 96-well plate, the concentration of bacterial culture was 5×10^5 CFU/ml, 20 μl of surfactin at different concentrations prepared by titration were added and incubated at 37° C. for 16 hours. A spectrophotometer was used to calculate the concentration of bacterial growth and the obtained data was compared with the original value (OD540=1), the concentration of the experimental group that equals to the original value is used as the minimum inhibiting concentration (MIC). Each group was prepared in triplicate and a control group was included.

The next data set concerns Vibrio salmonicida. Description: in vitro susceptibility test (MIC). The class given is cell-based. Particulars: 37° C., OD540, read-out: minimum inhibiting concentration (MIC). The procedure: as §1
(§3) Preparation of bacterial culture of Escherichia coli DH5α, Vibrio harveyi, Vibrio alginolyticus, Vibrio anguillarum, Vibrio salmonicida, Aeromonas hydrophila and Staphylococcus epidermidis by inoculation of these bacteria onto LBA (E. coli·DH5α) or TSA (+1.5% NaCl) and incubation at 37° C. for 16 hours. Later, the colonies were scraped off and dissolved in specific medium; the concentration was adjusted to OD540 of 1 (1×10^9 colonies/c.c. culture medium), 100 μl of bacterial culture were add to 900 μl of LB or TSB (+1.5% NaCl) to give a concentration of […].
as §2

In the next data set the test system is Vibrio harveyi. Put plainly: in vitro susceptibility test (MIC). Particulars: 37° C., OD540, read-out: minimum inhibiting concentration (MIC). The data set is classed as cell-based. On the procedure: as §1, §3, §2
The test system of a further data set is Vibrio anguillarum. Put plainly: in vitro susceptibility test (MIC). The data set is classed as cell-based. Particulars: 37° C., OD540, read-out: minimum inhibiting concentration (MIC). On the procedure:
as §1, §3, §2

Another data set has as its system Escherichia coli DH5α. Put plainly: in vitro susceptibility test (MIC). The data set is classed as cell-based. Particulars: E. coli, 37° C. On the procedure:
as §1, §3, §2

A further data set concerns Vibrio alginolyticus. Description: in vitro susceptibility test (MIC). Particulars: 37° C., OD540, read-out: minimum inhibiting concentration (MIC). The class given is cell-based. On the procedure:
as §1, §3, §2

The test system of data set [1] is Staphylococcus epidermidis. Description: in vitro susceptibility test (MIC). The data set is classed as cell-based. Particulars: 37° C., OD540, read-out: minimum inhibiting concentration (MIC). The procedure: as §1, §3, §2
The next data set has as its system bacterial culture. Description: in vitro susceptibility test (MIC), summary statement of the text. The class given is cell-based. On the procedure: as §1, §3, §2
A further data set concerns nervous necrosis virus. Put plainly: effect of surfactin on morphology of virus particles (transmission electron microscope). On the procedure: Surfactin was dissolved in sterilized water and the solution was filtered with a 0.2 μm filter membrane, followed by dilution of dissolved surfactin in 1% FBS-L15 to give diluted surfactin solution at the concentrations of 40 μg/ml and […]. The surfactin treatment group: surfactin and virus in the volume ratio of 1:1 were mixed. Control group: 1% FBS-L15 culture medium with NNV culture were mixed and incubated at 28° C. for 1 day before examination under a transmission electron microscope (Hitachi H-600). An aliquot of 6 μl of the surfactin treatment group was dropped onto a copper mesh to allow precipitation of the virus for about 10 minutes before been stained in 1% phosphotungstic acid (PTA, Sigma) at pH 7.4. After staining, excess mixture was removed with filter paper and incubated at room temperature for 30 minutes. The sample was examined after the copper mesh was air-dried. The voltage used for transmission electron microscope was 75 KV and the exposure time of the film was 4 seconds. The removed negative film was placed on the rack and soaked in the developer D19 for 4 minutes to develop the image. After completion of development, the film was soaked in 0.33% glacial acetic acid to stop the reaction followed by 10 minutes in fixative. Finally, excess chemicals were removed by placing the film under running water for 60 minutes before drying.

Another data set concerns Iridovirus. The description is as above.
The subject of a further data set is Aeromonas hydrophila. Put plainly: in vitro susceptibility test (MIC). The data set is classed as cell-based. Particulars: 16 h, 37° C., OD540, read-out: minimum inhibiting concentration (MIC). The procedure:
as §1, §3, §2

The conditions of data set [2]: surfactin 20 μM; reduced from 72 mN/m; cited from earlier work.

For the molecule `CC(C)CCCCCCCCC[C@@H]1CC(=O)N[C@@H](CCC(=O)O)C(=O)N[C@@H](CC(C)C)C(=O)N[C@H](CC(C)C)C(=O)N[C@@H](C(C)C)C(=O)N[C@@H](CC(=O)O)C(=O)N[C@H](CC(C)C)C(=O)N[C@@H](CC(C)C)C(=O)O1` [surfactin produced by the high-yield mutant strain of Bacill] (EL[dL]VD[dL]L; linker N-C via X1), the MIC with Aspergillus niger amounted to 128.7 µM (≈ 133 µg/mL); in the data set on Vibrio salmonicida (16 hours), 96.5 µM (≈ 100 µg/mL); in the data set on Vibrio harveyi (16 hours), 96.5 µM (≈ 100 µg/mL); in the data set on Vibrio anguillarum (16 hours) it was 96.5 µM (≈ 100 µg/mL); in the data set on Escherichia coli DH5α (16 hours, OD540, read-out: minimum inhibiting concentration (MIC)) it was 96.5 µM (≈ 100 µg/mL); with Vibrio alginolyticus (16 hours), 96.5 µM (≈ 100 µg/mL). Moreover, in data set [1] (16 hours), the MIC was 96.5 µM (≈ 100 µg/mL).

For the molecule `CC(C)CCCCCCCCC[C@@H]1CC(=O)N[C@@H](CCC(=O)O)C(=O)N[C@@H](CC(C)C)C(=O)N[C@H](CC(C)C)C(=O)N[C@@H](C(C)C)C(=O)N[C@@H](CC(=O)O)C(=O)N[C@H](CC(C)C)C(=O)N[C@@H](CC(C)C)C(=O)O1` [surfactin] (EL[dL]VD[dL]L; linker N-C via X1), the MIC against bacterial culture was 96.5 µM (≈ 100 µg/mL); in the data set with Aspergillus niger, 193 µM (≈ 200 µg/mL); in the data set with Vibrio salmonicida (Aliivibrio salmonicida, 16 h) it was 129 µM (≈ 133 µg/mL); with Vibrio harveyi (16 h), 129 µM (≈ 133 µg/mL); in the data set on Vibrio anguillarum (16 h), 129 µM (≈ 133 µg/mL); with Escherichia coli DH5α (Escherichia coli, 16 h, OD540, read-out: minimum inhibiting concentration (MIC)), 193 µM (≈ 200 µg/mL). Moreover, the MIC (in the data set with Aeromonas hydrophila; in the data set with Vibrio alginolyticus (16 h); in [1] (16 h)) was 129 µM (≈ 133 µg/mL) each time. For the same molecule, the “morphology of nervous necrosis virus particles” value is listed as “normal viral particles” with nervous necrosis virus (40 μg/ml surfactin + nervous necrosis virus, FIG. 2A (D)) and “abnormal viral particles” in the data set on nervous necrosis virus (100 μg/ml surfactin + nervous necrosis virus, FIG. 2A (E)). Besides, the “morphology of Iridovirus particles” value in the data set on Iridovirus (10 μg/ml surfactin + Iridovirus, FIG. 2B (B)) is “the appearance of said virus has changed”; with Iridovirus (40 μg/ml surfactin + Iridovirus, FIG. 2B (C)) it was “adhesion between surfactin and viruses is observed”. The “surface tension of water” value in data set [2] is reported as 27 mN/m.
